Assays:
OVA-sensitized mice = assay: Murine model of OVA-induced allergic diarrhea: diarrhea scores; type: in vivo, Balb/c mice
Source text: Male Balb/c mice were sensitized by intraperitoneal injection of ovalbumin (OVA) together with aluminium potassium sulphate.
(§1) Briefly, following sensitization (2 intraperitoneal injections of OVA and aluminium potassium sulphate at an interval of 14 days) adult male Balb/c mice were orally challenged with OVA for 6 times (days 28, 30, 33, 35, 37, 40) resulting in transient clinical symptoms (diarrhea) and changes of immune parameters (plasma concentration of total IgE, OVA specific IgE, mouse mast cell protease 1 (MMCP-1) as well as Th2 type cytokine production of ex vivo OVA re-stimulated mesenteric lymphocytes (MLN)). Substances, to be tested, were administered either by subcutaneous injection (thymoquinone and naloxone methiodide according to the literature) or by gavage (Nigella sativa extract).

κ-hOR = κ-hOR (Homo sapiens, UniProt P41145); assay: Ligand displacement from κ-opioid receptor; type: binding; conditions: 100 μM
κ-hOR, sequence (P41145 whole entry): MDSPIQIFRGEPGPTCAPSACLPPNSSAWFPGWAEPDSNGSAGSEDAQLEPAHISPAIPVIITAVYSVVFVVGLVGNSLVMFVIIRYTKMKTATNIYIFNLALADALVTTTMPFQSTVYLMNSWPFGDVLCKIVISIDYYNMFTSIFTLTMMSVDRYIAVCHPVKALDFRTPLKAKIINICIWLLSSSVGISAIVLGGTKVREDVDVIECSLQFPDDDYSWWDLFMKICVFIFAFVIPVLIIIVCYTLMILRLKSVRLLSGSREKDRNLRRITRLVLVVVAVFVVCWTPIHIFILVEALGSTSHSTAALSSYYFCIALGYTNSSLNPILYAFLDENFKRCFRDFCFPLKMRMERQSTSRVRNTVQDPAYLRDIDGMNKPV

μ-hOR = μ-hOR (Homo sapiens, UniProt P35372); assay: Ligand displacement from μ-opioid receptor; type: binding; conditions: 100 μM
μ-hOR, sequence (P35372 whole entry): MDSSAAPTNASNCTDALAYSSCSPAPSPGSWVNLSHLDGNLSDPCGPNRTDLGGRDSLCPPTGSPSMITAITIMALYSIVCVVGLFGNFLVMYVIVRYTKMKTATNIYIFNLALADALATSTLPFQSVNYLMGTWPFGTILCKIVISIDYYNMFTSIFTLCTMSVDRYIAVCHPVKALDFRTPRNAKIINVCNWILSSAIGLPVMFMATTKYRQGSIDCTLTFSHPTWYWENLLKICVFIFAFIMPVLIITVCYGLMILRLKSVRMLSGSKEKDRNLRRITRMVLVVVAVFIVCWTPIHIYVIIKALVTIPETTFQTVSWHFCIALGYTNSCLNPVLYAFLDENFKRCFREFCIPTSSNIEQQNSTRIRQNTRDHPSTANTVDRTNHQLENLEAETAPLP

δ-hOR = δ-hOR (Homo sapiens, UniProt P41143); assay: Ligand displacement from δ-opioid receptor; type: binding; conditions: 100 μM
δ-hOR, sequence (P41143 whole entry): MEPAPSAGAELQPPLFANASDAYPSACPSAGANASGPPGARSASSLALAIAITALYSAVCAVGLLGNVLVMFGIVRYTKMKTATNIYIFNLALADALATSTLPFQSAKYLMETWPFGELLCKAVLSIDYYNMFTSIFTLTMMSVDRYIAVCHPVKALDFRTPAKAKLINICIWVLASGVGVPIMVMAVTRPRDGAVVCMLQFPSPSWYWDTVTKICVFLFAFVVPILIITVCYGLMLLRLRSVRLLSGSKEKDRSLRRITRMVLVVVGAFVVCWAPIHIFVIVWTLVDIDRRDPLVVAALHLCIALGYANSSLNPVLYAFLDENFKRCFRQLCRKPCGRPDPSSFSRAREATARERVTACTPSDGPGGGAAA

[1] = test system: mouse mast cell protease 1 (MMCP-1); assay: Murine model of OVA-induced allergic diarrhea: plasma MMCP-1; type: in vivo, Balb/c mice; conditions: thymoquinone study; 4th challenge; FIG. 2
Source text: as §1
At large the MMCP-1 concentration in plasma correlates with the number of mast cells in the tissue which are known to be key players of diarrhea development in this mouse model (Brandt, E. B., et al., 2003, J. Clin. Invest 112, 1666-1677).

Compound | diarrhea score (Median ±RobustSD) (OVA-sensitized mice; 3rd challenge, FIG. 3, OVA control 1±1.2) | diarrhea score (Median ±RobustSD) (OVA-sensitized mice; 4th challenge, FIG. 3, OVA control 2±3.6) | diarrhea score (Median ±RobustSD) (OVA-sensitized mice; 5th challenge, FIG. 3, OVA control 4±0) | diarrhea score (Median ±RobustSD) (OVA-sensitized mice; 6th challenge, FIG. 3, OVA control 4.5±1.2) | κ-hOR % ligand displacement (κ-hOR) | diarrhea score (Median ±RobustSD) (OVA-sensitized mice; OVA-challenged mice treated with thymoquinone (subcutaneous), after 6th challenge, FIG. 1, OVA control 5±0) | clinical symptoms compared to non-treated mice (OVA-sensitized mice; thymoquinone 4 days prior to sensitization and during challenge period, after 6th challenge) | μ-hOR % ligand displacement (μ-hOR) | δ-hOR % ligand displacement (δ-hOR) | plasma MMCP-1 compared to non-treated OVA challenged controls [1]
C=CC[N+]1(C)CC[C@]23c4c5ccc(O)c4O[C@H]2C(=O)CC[C@@]3(O)[C@H]1C5.[I-] (stereo partly shown) [Naloxone, naloxone methiodide] | 2±1.2 | 3.5±1.2 | 4±0 | 5±0 | – | – | – | – | – | –
CC1=CC(=O)C(C(C)C)=CC1=O [Thymoquinone, 2-Isopropyl-5-methyl-1,4-benzoquinone] | – | – | – | – | 37% | 3±1.79 | significantly improve | 45% | 48% | significantly lower

— patent US20120142580A1, “OPIOID RECEPTORS STIMULATING COMPOUNDS (THYMOQUINONE, NIGELLA SATIVA) AND FOOD ALLERGY” (NESTEC S.A., priority 2009, published 2012)
